Source: ChEMBL document CHEMBL1201862, “PubChem BioAssay data set” (2004)
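48-hour exposure; five concentrations; linearly interpolated endpoints. GI50 marks 50% less growth.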 Active and inactive are the calls of the source. No stated cut-off is given here; in the data, active = GI50 up to about 1.1 µM and inactive = higher.

What was measured:
Experiment in all cases: inhibition of tumour cell growth, NCI panel, 48 h
[1] = test system: SK-MEL-28
[2] = test system: NCI-H460
[3] = test system: NCI-H226
[4] = test system: HCC 2998
[5] = test system: U-251
[6] = test system: UACC-257
[7] = test system: HOP-18
[8] = test system: KM12
[9] = test system: HCT-15
[10] = test system: Malme-3M
[11] = test system: 786-0
[12] = test system: SW-620
[13] = test system: TK-10
[14] = test system: SNB-75
[15] = test system: A498
[16] = test system: DMS-273
[17] = test system: COLO 205
[18] = test system: LXFL 529
[19] = test system: HCT-116
[20] = test system: UO-31
[21] = test system: OVCAR-4
[22] = test system: RXF 393
[23] = test system: SNB-19
[24] = test system: HOP-62
[25] = test system: NCI-H522
[26] = test system: SN12C
[27] = test system: UACC-62
[28] = test system: SK-MEL-5
[29] = test system: KM-20L2
[30] = test system: ACHN
[31] = test system: RPMI-8226
[32] = test system: SF-539
[33] = test system: OVCAR-3
[34] = test system: SK-MEL-2
[35] = test system: DLD-1
[36] = test system: SF-268
[37] = test system: EKVX
[38] = test system: CAKI-1
[39] = test system: OVCAR-8
[40] = test system: M19-MEL
[41] = test system: SR
[42] = test system: A549
[43] = test system: SK-OV-3
[44] = test system: M14
[45] = test system: SNB-78
[46] = test system: IGROV-1
[47] = test system: RXF 631
[48] = test system: MOLT-4
[49] = test system: K562
[50] = test system: HL-60
[51] = test system: LOX IMVI
[52] = test system: HOP-92
[53] = test system: OVCAR-5
[54] = test system: HT-29
[55] = test system: DMS-114
[56] = test system: CCRF-CEM
[57] = test system: NCI-H23
[58] = test system: SF-295
[59] = test system: XF498

In the case of `Nc1ncn(C2C=C(CO)C(O)C2O)c(=O)n1` (configuration not stated), the GI50 [1] is reported as > 100 µM (inactive), the GI50 [2] is reported as 35 µM (inactive) and the GI50 [3] is reported as > 100 µM (inactive). The GI50 [4] was 89.7 µM (inactive), the GI50 [5] was > 100 µM (inactive) and the GI50 [6] was > 100 µM (inactive). The GI50 [7] was > 100 µM (inactive), the GI50 [8] was > 100 µM (inactive) and the GI50 [9] was 54.2 µM. For the same compound, the GI50 [10] was > 100 µM (inactive), the GI50 [11] was 63.1 µM (inactive) and the GI50 [12] was 57.5 µM (inactive). For the same compound, the GI50 [13] was > 100 µM (inactive), the GI50 [14] was > 100 µM (inactive) and the GI50 [15] was > 100 µM (inactive). For the same compound, the GI50 [16] was > 100 µM (inactive), the GI50 [17] was 29.3 µM (inactive) and the GI50 [18] was > 100 µM (inactive). The GI50 [19] was 40 µM (inactive), the GI50 [20] was 92.7 µM (inactive) and the GI50 [21] was 85.9 µM (inactive). For the same compound, the GI50 [22] was > 100 µM (inactive), the GI50 [23] was > 100 µM (inactive) and the GI50 [24] was 35.1 µM (inactive). For the same compound, the GI50 [25] was 37.2 µM (inactive), the GI50 [26] was 32.4 µM (inactive) and the GI50 [27] was > 100 µM (inactive). For the same compound, the GI50 [28] was > 100 µM (inactive), the GI50 [29] was 66.1 µM (inactive) and the GI50 [30] was 46.5 µM (inactive). The GI50 [31] was 37 µM (inactive), the GI50 [32] was 63.5 µM (inactive) and the GI50 [33] was > 100 µM (inactive). The GI50 [34] was 94.4 µM (inactive), the GI50 [35] was 63.5 µM (inactive) and the GI50 [36] was 53 µM (inactive). The GI50 [37] was > 100 µM (inactive), the GI50 [38] was 40.7 µM (inactive) and the GI50 [39] was 45.5 µM (inactive). The GI50 [40] was > 100 µM (inactive), the GI50 [41] was 26.7 µM (inactive) and the GI50 [42] was 52.4 µM (inactive). For the same compound, the GI50 [43] was > 100 µM (inactive), the GI50 [44] was > 100 µM (inactive) and the GI50 [45] was > 100 µM (inactive). The GI50 [46] was 84.5 µM (inactive), the GI50 [47] was 47.6 µM (inactive) and the GI50 [48] was 59.4 µM (inactive). For the same compound, the GI50 [49] was 41.6 µM (inactive) and the GI50 [50] was 31.6 µM (inactive).

In the case of `Cc1ccc(NC(=O)CCC(=O)C(C#N)c2ccc(Cl)cc2)cc1C` (configuration not stated), the GI50 [1] is reported as > 100 µM (inactive), the GI50 [2] is reported as > 100 µM (inactive) and the GI50 [51] is reported as > 100 µM (inactive). The GI50 [3] was > 100 µM (inactive), the GI50 [4] was > 100 µM (inactive) and the GI50 [5] was > 100 µM (inactive). The GI50 [6] was > 100 µM (inactive), the GI50 [52] was > 100 µM (inactive) and the GI50 [7] was > 100 µM (inactive). The GI50 [8] was > 100 µM (inactive), the GI50 [9] was > 100 µM and the GI50 [10] was > 100 µM (inactive). The GI50 [11] was > 100 µM (inactive), the GI50 [12] was > 100 µM (inactive) and the GI50 [13] was > 100 µM (inactive). The GI50 [14] was > 100 µM (inactive), the GI50 [15] was > 100 µM (inactive) and the GI50 [16] was > 100 µM (inactive). For the same compound, the GI50 [18] was > 100 µM (inactive), the GI50 [53] was > 100 µM (inactive) and the GI50 [19] was > 100 µM (inactive). The GI50 [54] was > 100 µM (inactive), the GI50 [20] was > 100 µM (inactive) and the GI50 [21] was > 100 µM (inactive). The GI50 [22] was > 100 µM (inactive), the GI50 [23] was > 100 µM (inactive) and the GI50 [24] was > 100 µM (inactive). For the same compound, the GI50 [25] was > 100 µM (inactive), the GI50 [26] was > 100 µM (inactive) and the GI50 [27] was > 100 µM (inactive). For the same compound, the GI50 [28] was > 100 µM (inactive), the GI50 [29] was > 100 µM (inactive) and the GI50 [30] was > 100 µM (inactive). For the same compound, the GI50 [31] was > 100 µM (inactive), the GI50 [32] was > 100 µM (inactive) and the GI50 [33] was > 100 µM (inactive). The GI50 [34] was > 100 µM (inactive), the GI50 [35] was > 100 µM (inactive) and the GI50 [55] was > 100 µM (inactive). The GI50 [36] was > 100 µM (inactive), the GI50 [37] was > 100 µM (inactive) and the GI50 [38] was > 100 µM (inactive). For the same compound, the GI50 [39] was > 100 µM (inactive), the GI50 [40] was > 100 µM (inactive) and the GI50 [42] was > 100 µM (inactive). For the same compound, the GI50 [56] was > 100 µM (inactive), the GI50 [44] was > 100 µM (inactive) and the GI50 [45] was > 100 µM (inactive). The GI50 [46] was > 100 µM (inactive), the GI50 [48] was > 100 µM (inactive) and the GI50 [57] was > 100 µM (inactive). For the same compound, the GI50 [49] was > 100 µM (inactive), the GI50 [50] was > 100 µM (inactive) and the GI50 [58] was > 100 µM (inactive). The GI50 [59] was > 100 µM (inactive).

With `COC(=O)/C(=C/c1ccc(OC)cc1)C(C(=O)O)=C1CCCCC1` the GI50 [2] was > 100 µM (inactive), the GI50 [51] was > 100 µM (inactive) and the GI50 [3] was > 100 µM (inactive). For the same compound, the GI50 [5] was > 100 µM (inactive), the GI50 [6] was > 100 µM (inactive) and the GI50 [52] was > 100 µM (inactive). For the same compound, the GI50 [8] was > 100 µM (inactive), the GI50 [9] was > 100 µM and the GI50 [11] was > 100 µM (inactive). The GI50 [12] was > 100 µM (inactive), the GI50 [13] was > 100 µM (inactive) and the GI50 [14] was > 100 µM (inactive). The GI50 [15] was > 100 µM (inactive), the GI50 [16] was > 100 µM (inactive) and the GI50 [17] was > 100 µM (inactive). For the same compound, the GI50 [18] was > 100 µM (inactive), the GI50 [53] was > 100 µM (inactive) and the GI50 [19] was > 100 µM (inactive). For the same compound, the GI50 [54] was > 100 µM (inactive), the GI50 [20] was > 100 µM (inactive) and the GI50 [21] was > 100 µM (inactive). For the same compound, the GI50 [22] was > 100 µM (inactive), the GI50 [23] was > 100 µM (inactive) and the GI50 [24] was > 100 µM (inactive). The GI50 [25] was > 100 µM (inactive), the GI50 [26] was > 100 µM (inactive) and the GI50 [27] was > 100 µM (inactive). The GI50 [28] was > 100 µM (inactive), the GI50 [29] was > 100 µM (inactive) and the GI50 [30] was > 100 µM (inactive). For the same compound, the GI50 [31] was > 100 µM (inactive), the GI50 [32] was > 100 µM (inactive) and the GI50 [34] was > 100 µM (inactive). For the same compound, the GI50 [35] was > 100 µM (inactive), the GI50 [37] was > 100 µM (inactive) and the GI50 [38] was > 100 µM (inactive). The GI50 [39] was > 100 µM (inactive), the GI50 [40] was > 100 µM (inactive) and the GI50 [41] was > 100 µM (inactive). The GI50 [42] was > 100 µM (inactive), the GI50 [56] was > 100 µM (inactive) and the GI50 [43] was > 100 µM (inactive). The GI50 [44] was > 100 µM (inactive), the GI50 [45] was > 100 µM (inactive) and the GI50 [46] was > 100 µM (inactive). The GI50 [47] was > 100 µM (inactive), the GI50 [48] was > 100 µM (inactive) and the GI50 [57] was > 100 µM (inactive). The GI50 [49] was > 100 µM (inactive), the GI50 [50] was > 100 µM (inactive) and the GI50 [58] was > 100 µM (inactive). For the same compound, the GI50 [59] was > 100 µM (inactive).
